Source: patent US7723021B2, “Methods for treating lentivirus infections” (The J. David Gladstone Institutes, priority 2003, dated 2010)
Entries after “also recorded” stand apart in the source; their conditions may differ. Non-standard residues stand in square brackets, D forms with d. Residues, ends and D or L forms follow the SMILES beside them. *: point of attachment. Nle = CCCC[C@H](N)C(=O)O; Cbz = O=C(OCc1ccccc1)*

Experiments:
[1] = system: Vif-mediated depletion of APOBEC3G-HA in 293T cells; assay: Proteasome inhibitor panel in 293T cells transiently transfected with APOBEC3G-HA and Vif, immunoblot; format: cell-based; details: 15 hours
Protocol: 293T cells were transfected with the indicated amounts of expression vector DNA using the calcium phosphate method. Lysis buffers used for immunoblotting were (1) 100-400 mM NaCl, 50 mM Hepes, 0.2% NP40, 0-5 mM EDTA, 0.1 mM PMSF, plus complete protease inhibitor cocktail (Roche)(1 tablet/50 ml buffer) or (2) 50 mM Hepes, pH 7.2, 135 mM NaCl, 1% Triton X-100, 0.5% deoxycholate, 10% glycerol, 1 mM EDTA, 1× protease inhibitor cocktail (Calbiochem). Samples were analyzed using standard SDS-PAGE techniques.
(§1) For the proteasome inhibitor experiments in transiently transfected cells, 293T cells were transiently transfected with 0.1 μg of APOBEC3G-HA DNA, 2 μg of control vector DNA and 2 μg of either pcDNA3.1 Vif DNA vector or an additional 2 μg of control vector DNA. Twenty-four hours after transfection, the cells were treated with the indicated inhibitor and harvested 15 hours later. For the proteasome inhibitor experiments using infected H9 cells, H9 cells were infected by spinoculation as described above. Forty-four hours after infection, the cells were treated for 16 hours with either dimethylsulfoxide (DMSO) (0.1%) or 0.25 μM epoxomicin. All of the inhibitors (ALLN, MG132, epoxomicin, Calpain Inhibitor III, and clasto-Lactacystin-β-Lactone) were purchased from CalBiochem and were dissolved in DMSO.
To confirm this finding in a different system, a similar experiment was performed using 293T cells transiently transfected with an APOBEC3G-HA expression vector and either a Vif expression vector or a control vector. Twenty-four hours after transfection the cells were treated with a panel of different proteasome inhibitors for a 15-hour period. It was observed that the broadly acting proteasome inhibitors MG132 (12.5 μM) and ALLN (25 μM) as well as the more specific proteasome inhibitor clasto-Lactacystin-β-Lactone ([…], 20 μM) enhanced the levels of APOBEC3G-HA in the presence of Vif when compared to the diluent control sample (0.1% DMSO) (FIG. 8C, lanes 7 through 12).
(§2) FIG. 8A-C. Vif shortens the half-life of APOBEC3G, and proteasome inhibitors partially block the intracellular depletion of APOBEC3G-HA. (A) Pulse-Chase Radiolabeling. HEK 293 cells transiently transfected with APOBEC3G-HA and Vif or control vector DNA were pulse-labeled for 30 min. The initial pulse-labeled (t=0) samples were harvested, and the remaining samples were incubated with chase media for the indicated time points. After immunoprecipitation with anti-HA antibody, the samples were analyzed by SDS-PAGE and the gels were subjected to autoradiography. The relative intensity of the bands were quantified and the Vif (+) and Vif (−) samples were normalized to 1 and graphed (FIG. 8, right side). The T1/2 of APOBEC3G was 1.9 hours in the presence of Vif and 10 hours in the absence of Vif. (B) Proteasome inhibitor studies using infected H9 cells. Mock or HIV-1 wt-infected H9 cells were treated with the broadly active proteasome inhibitor epoxomicin (0.25 μM) or DMSO (0.1%) 44 hours after infection. Sixteen hours following treatment, the cells were harvested; and whole cell lysates were prepared by boiling the cells in Laemmli lysis buffer. Note that Epoxomicin caused an increase in endogenous APOBEC3G levels in the infected sample (compare lane 2 with lane 1). (C) Proteasome inhibitor studies using transiently-transfected 293T cells. Twenty-four hours following transfection of 293T cells with 0.1 μg APOBEC3G and 2 μg Vif or control vector DNA, the cells were treated with the indicated concentration of inhibitor for 15 hours. APOBEC3G-HA levels were elevated in the presence of the proteasome inhibitors MG132, ALLN, and clasto-lactacystin-β-lactone (lanes 8-11), but not in the presence of calpain inhibitor III (lane 12).

[2] = system: APOBEC3G in peripheral blood lymphocytes; assay: PBLs incubated with stimulant for 48 hours, Western blot for APOBEC3G (Example 2); format: cell-based, Human; details: incubated with stimulant for 48 hours versus unstimulated
Protocol: Human peripheral blood lymphocytes (PBLs) were isolated from blood and then incubated with anti-CD3 antibody (α-CD3), anti-CD28 antibody (α-CD28), IL-9, IL-12, IL-13, IL-15, or IFN-γ for 48 hours. Cells were lysed, the lysates clarified, and the protein concentration of the lysates was quantitated. Equal amounts of proteins in the lysates were separated by SDS-PAGE. After separation of the proteins by SDS-PAGE, the proteins were transferred to a membrane, and antibody to APOBEC3G was used to detect APOBEC3G protein on the membrane. The results are depicted in FIGS. 1-13.
FIG. 11 depicts the effect of PHA, anti-CD3 antibody, anti-CD28 antibody, and IL-15 on the level of APOBEC3G in peripheral blood lymphocytes. […] Western blot of cell lysates deriving from stimulated and unstimulated peripheral blood lymphocytes. PBLs were isolated from blood and then incubated with the indicated stimulant for 48 hours. Following separation of the proteins by SDS-PAGE, antibody to APOBEC3G was used to detect APOBEC3G protein. As a loading control, anti-β-actin was used to detect β-actin.

[3] = system: Vif-induced degradation of APOBEC3G (26S proteasome) in H9 cells; assay: Proteasome inhibitor experiment in HIV-1 wt-infected or mock-infected H9 cells, immunoblot of whole cell lysates; format: cell-based, human; details: 0.25 μM; for APOBEC3G levels in infected cells compared to DMSO-treated cells: treated 16 hours, 44 hours after infection
Protocol: as §1
To investigate whether the 26S proteasome might mediate the Vif-induced degradation of APOBEC3G, H9 cells were infected with HIV-1 wt or were mock-infected. […] Whole cell lysates were subsequently prepared by boiling the cells in Laemmli lysis buffer, followed by protein separation by SDS-PAGE and immunoblotting. As expected, APOBEC3G levels were much lower in the infected sample when compared to the uninfected sample (FIG. 8B, lanes 1 and 3).
as §2, with “APOBEC3G-HA levels were elevated in the presence of the proteasome inhibitors MG132, ALLN, and clasto-lactacystin-β-lactone (lanes 8-11), but not in the presence of calpain inhibitor III (lane 12).” left out

For `CC(C)[C@H](O)[C@@]12NC(=O)[C@H](C)[C@@H]1OC2=O` [clasto-Lactacystin-β-Lactone], the “levels of APOBEC3G-HA in the presence of Vif compared to diluent control (0.1% DMSO)” value (“levels of APOBEC3G-HA … (0.1% DMSO)” below) ([1]; 110 μM, 20 μM) was “enhanced” and the “levels of APOBEC3G-HA … (0.1% DMSO)” value ([1]; 110 μM, 20 μM, listed as clasto-lactacystin-β-lactone) was “elevated”.
In the case of `CC(=O)O[C@@]12C[C@@H](C)[C@@]3(O)[C@@H](C=C(CO)C[C@]4(O)C(=O)C(C)=C[C@@H]34)[C@@H]1C2(C)C` [prostratin, 12-deoxyphorbol-13-acetate], the “level of APOBEC3G in peripheral blood lymphocytes” value [2] is reported as “upregulated”.
With `CC(C)[C@H](NC(=O)OCc1ccccc1)C(=O)N[C@H](C=O)Cc1ccccc1` [Calpain Inhibitor III] (Cbz-Val-Phe-aldehyde) the “levels of APOBEC3G-HA … (0.1% DMSO)” value ([1]; 50 μM) was “did not cause an increase” and the “levels of APOBEC3G-HA … (0.1% DMSO)” value ([1]; 50 μM, listed as calpain inhibitor III) was “not”.
With `CC[C@H](C)[C@H](NC(=O)[C@H]([C@@H](C)CC)N(C)C(C)=O)C(=O)N[C@H](C(=O)N[C@@H](CC(C)C)C(=O)[C@@]1(C)CO1)[C@@H](C)O` [epoxomicin] the Vif levels ([3]; HIV-1 wt-infected H9 cells, 16 hours) was “increase”, the “APOBEC3G levels in infected cells compared to DMSO-treated cells” value ([3]; HIV-1 wt-infected H9 cells) was “elevated” and the “APOBEC3G levels in infected cells compared to DMSO-treated cells” value ([3]; HIV-1 wt-infected H9 cells, listed as Epoxomicin) was “increase”. For the same compound, the “level of APOBEC3G in the uninfected cultures” value ([3]; mock-infected H9 cells, 16 hours) was “did not appear to cause a similar increase”.
For `CCCCCCCCCCCCCC(=O)O[C@@H]1[C@@H](C)[C@@]2(O)[C@@H](C=C(CO)C[C@]3(O)C(=O)C(C)=C[C@@H]23)[C@@H]2C(C)(C)[C@]12OC(C)=O` [PMA, phorbol-12-myristate-13-acetate], the “level of APOBEC3G in peripheral blood lymphocytes” value [2] was “upregulated”.
In the case of `CCCC[C@@H](C=O)NC(=O)[C@H](CC(C)C)NC(=O)[C@H](CC(C)C)NC(C)=O` [ALLN] (Ac-Leu-Leu-[Nle]-aldehyde), the “levels of APOBEC3G-HA … (0.1% DMSO)” value ([1]; 25 μM) is reported as “enhanced; also recorded: elevated”.
IL-15: cytokine was tested, and the “level of APOBEC3G in peripheral blood lymphocytes” value [2] was “increased expression”.
